Assays:
[1] = Antagonist activity at mouse CCR2 assessed as inhibition of MCP1-induced chemotaxis after 30 mins
[2] = Antagonist activity at CCR2 in human PBMC assessed as inhibition of MCP1-induced chemotaxis after 30 mins

SMILES | IC50 [1] | IC50 [2]
Cc1ccc([C@]2(O)CC[C@H](N3CC[C@@H](NC(=O)CNC(=O)c4cccc(C(F)(F)F)c4)C3)CC2)cc1 | 156 nM | –
O=C(CNC(=O)c1cccc(C(F)(F)F)c1)N[C@@H]1CCN([C@H]2CC[C@@](O)(c3cccnc3)CC2)C1 | – | 3.9 nM
O=C(CNC(=O)c1cccc(C(F)(F)F)c1)N[C@@H]1CCN([C@H]2CC[C@@](O)(c3ccncc3)CC2)C1 | – | 3 nM
O=C(CNC(=O)c1cccc(C(F)(F)F)c1)N[C@@H]1CCN([C@H]2CC[C@@](O)(c3ncccn3)CC2)C1 | – | 9.3 nM
O=C(CNC(=O)c1cccc(C(F)(F)F)c1)N[C@@H]1CCN([C@H]2CC[C@@](O)(c3cncnc3)CC2)C1 | – | 20 nM
O=C(CNC(=O)c1cccc(C(F)(F)F)c1)N[C@@H]1CCN([C@H]2CC[C@@](O)(c3cccnn3)CC2)C1 | – | 5.8 nM
O=C(CNC(=O)c1cccc(C(F)(F)F)c1)N[C@@H]1CCN([C@H]2CC[C@@](O)(c3ccnnc3)CC2)C1 | – | 7.2 nM
Cc1ccc([C@]2(O)CC[C@H](N3CC[C@@H](NC(=O)CNC(=O)c4cccc(C(F)(F)F)c4)C3)CC2)cn1 | – | 5.6 nM
CCOc1ccc([C@]2(O)CC[C@H](N3CC[C@@H](NC(=O)CNC(=O)c4cccc(C(F)(F)F)c4)C3)CC2)cn1 | – | 2.7 nM

Source: BindingDB's records for doi:10.1021/ml200030q (2011)
